Results taken from patent publication US6620418B1, “Antiseptic/antifungal agent and endermic liniment composition which contains it” (Shiseido Company, Ltd., priority 1999, dated 2003).

Test system: Mold, yeast, and bacteria
Assay: The antiseptic effectiveness evaluation test
Assay type: cell-based
Method: The Antiseptic Effectiveness Evaluation Test 30 ml of the sample was inoculated with microbe-containing fluid, and the change in the number of microbes was checked with the smearing method. Mold, yeast, and bacteria were used as the inoculation microbes. The antiseptic effectiveness was evaluated based on the changes in the number of the microbes in two weeks, and the obtained results were classified by using the following four step criterion. […] X: No reduction in microbes was observed.

Compound: CCCCC(CC)(CO)CO [2-n-butyl-2-ethyl-1,3-propanediol]
- concentration at which an adequate effect on bacteria was confirmed (1,3-butylene glycol additionally blended into the composition): 0.1%
- concentration of 2-n-butyl-2-ethyl-1,3-propanediol at which the compositions showed adequate antiseptic effectiveness (lotions of Table 1-2, effect on all the mold, yeast, and bacteria): ≥ 0.5%
